Measured values taken from patent US10058587B2, “Peptide composition for cancer treatment by inhibiting TRPV6 calcium channel activity” (priority 2008, dated 2018).
Where no end group is shown, it is not given here.

Key:
[1] = tested on: MDA-MB-468 (MB 468) breast cancer cell line; test: Induction of apoptosis (APO-ONE caspase 3/7) and cell viability (CellTiter Blue); type: cell-based, human
Protocol: (§1) MCF-7, MDA-MB-231, MDA-MB-415, MDA-MB-468 were grown in DMEM modified with 10% (v/v) fetal bovine serum, 2 mM L-glutamine and 50 ug/mL each of penicillin and streptomycin.
(§2) The levels of apoptotic induction and cell viability were determined by multiplexing the measurements for single samples. CellTiter Blue and APO-ONE assay systems from Promega allows the determination of cell viability correlated to cell number, and induction of apoptosis. This protocol uses a fluorgenic peptide that contains a peptide recognition-sequence for caspase 3 and caspase 7, […] proteolytic enzymes of the apoptosis cascade. The CellTiter Blue reagent was added to wells in a 96-well plate containing cells under test, immediately after addition of peptide solution or vehicle. About 5000 cells were plated into the wells the day before. At the chosen time (Day 1, Day 2 etc.) the fluorescence was measured at 590 nm (emission) after excitation at 560 nm. The caspase 3/7 activity was measured (485 nm Ex/527 nm Em) in the same wells after adding 120 uL of the Apo-ONE reagent, freeze fracturing at −80° C. for 1 hr, and incubating for 1 hr at room temperature.
(§3) For this work, the concentrations of SorC13 and SorC27 used were 0 uM, 1 uM, 10 uM and 100 uM. The experiments extended over a 5 to 7 day period. All measurements were done in quadruplicate with both a blank (no cells) and control (vehicle, no peptide) used to correct the test measurements. The time-response data, and the dose-response data were plotted as means±standard error of the mean. Any statistical comparisons were done with the Student's t-test or by ANOVA analysis over the dose course. The level of statistical significance was considered to be the 95% confidence interval (i.e., p≤0.05).

[2] = tested on: MCF 7 breast cancer cell line; test: as above; type: cell-based, human
Protocol: as §1, §2, §3
To benchmark the effect of both C-type peptides to the gold-standard treatment presently used against breast cancer (Paclitaxel), SorC13, SorC27 and Paclitaxel (10 uM) were compared. Both the APO-ONE assay (Promega) and the CellTiter Blue were used on the panel of breast cancer cell lines. The data were compared directly in terms of mean response and tested for significant difference.

[3] = tested on: MCF 10A non-cancerous breast cell line; test: as above; type: cell-based, human; set-up: key to Decline in cell viability: cell viability decreased (+); or not (−)
Protocol: MCF-10A, MCF-12A were cultured in 50% DMEM plus 50% Ham's F12 modified with 2 mM L-glutamine, 1 mM sodium pyruvate, 0.01 mg/mL bovine insulin, 500 ng/mL hydrocortisone, 50 ug/mL of penicillin and streptomycin. The combined medium was supplemented with 5% (v/v) fetal bovine serum.
as §2, §3

[4] = tested on: OVCAR3 ovarian cancer cell line; test: as above; type: cell-based, human; set-up: key to Decline in cell viability: decreased (+); or not (−); conditions: for apoptosis (treatment:control ratio) compared with CAT cocktail: CAT = 10 uM Paclitaxel, 20 mM carboplatin
Protocol: OVCAR-3 was cultured in RPMI 1640 medium supplemented with 1.0 mM sodium pyruvate, 0.01 mg/mL insulin and 10% (v/v) fetal bovine serum.
as §2, §3
To compare the effect of the two SorC-peptides against the gold-standard treatment for ovarian cancers SorC13 or SorC27 was compared to treatment with a carboplatin and taxol (CAT) cocktail (10 uM Paclitaxel, 20 mM carboplatin) using the APO-ONE assay, which measures the combined activities of caspase 3 and caspase 7. Because of the mixed treatment (CAT), the effects were compared in terms of the ratio of treatment:control. If no effect was noted then the ratio=1. Comparisons of the treatment:control ratios were examined with the Student's t-test at a confidence level of 95%. Ratios of larger than a value of unity indicated a positive effect. The effects are illustrated in FIG. 5.

[5] = tested on: Human Non-Small Cell Lung Carcinoma (NSCLC) lines H1437 and H2087; test: Apoptosis (APO-ONE) and cell viability (CellTiter Blue) in NSCLC lines (Example 9); type: cell-based; conditions: 10 and 100 uM
Protocol: The effects of the C-peptides on metastasizing human lung carcinoma cells are studied. […] In vitro studies employing SorC13 and SorC27 are carried out in metastatic lymph node-derived cell lines to determine their effect on Human Non-Small Cell Lung Carcinoma (NSCLC) lines H1437 (from ATCC CRL-5872) and H2087 (from ATCC CRL-5922). Both of these cell lines are adenocarcinomas derived from the metastaic site (lymph node) and from a stage 1 NSCLC lung cancer. Major lymphatics of interest which are usefully treated with peptides of the invention include superfacial cervical nodes, axillary nodes, brachial nodes, mesenteric nodes and inguinal nodes.
For the study, the cell lines are grown under the recommended conditions and in culture media recommended by ATCC. The cell lines are cultured under sterile conditions at 37° C., in a humidified 5% CO2 atmosphere.
Both the APO-ONE assay and the CellTiter Blue (Promega) are used on the cell lines to evaluate apoptosis and cell viability, respectively.

PC3 and LnCaP clone FGC = test: Apoptosis and cell viability in prostate cancer cell lines (Example 10); type: cell-based, human; conditions: 0, 10 and 100 uM, 5 to 7 days
Protocol: (§4) For this work, the concentrations of SorC13 and SorC27 used are 0 uM, 10 uM and 100 uM. The experiments extend over a 5 to 7 day period. All measurements are done in quadruplicate with both a blank (no cells) and control (vehicle, no peptide) used to correct the test measurements. The time-response data, and the dose-response data are plotted as means±standard error of the mean.
The cell lines PC3 (from ATCC CRL-1435) and LnCaP clone FGC (from ATCC CRL-1740), obtained from the American Type Culture Collection (ATCC) and grown under the recommended conditions and in culture media recommended by ATCC. The cell lines are cultured under sterile conditions at 37° C., in a humidified 5% CO2 atmosphere.
Induction of apoptosis and attendant decrease is observed in cell viability in the cancer cell lines. From the large increases in the activities of the caspase3/7 activity, it is clear that there is a time dependent effect and a dose dependent effect on the induction of apoptosis.

K-562 = test: Apoptosis and cell viability in CML cell line (Example 12); type: cell-based, human; conditions: 0, 10 and 100 uM, 5 to 7 days
Protocol: as §4
The cell line K-562 (from ATCC CCL-243) is grown under the recommended conditions and in culture media recommended by ATCC. The cell lines were cultured under sterile conditions at 37° C., in a humidified 5% CO2 atmosphere.
Induction of apoptosis and attendant decrease is observed in cell viability in the cancer cell lines. From the large increases in the activities of the caspase 3/7 activity, it is clear that there is a time dependent effect and a dose dependent effect on the induction of apoptosis.

mealworm larvae = test: Mealworm larva paralytic bioassay; type: in vivo

**Q.** What does the source list for EGKLSSNDTEGGLCKEFLHPSKVDLPR [SorC27]?
**A.** Apoptosis Index (1 = no effect) ([1]; Day 3, SorC27 10 μM): 1.1; Apoptosis Index (1 = no effect) ([1]; Day 3, SorC27 100 μM): 1.2; Apoptosis Index (1 = no effect) ([2]; Day 2, SorC27 10 μM): 1.0; Apoptosis Index (1 = no effect) ([2]; Day 2, SorC27 100 μM): 2.8; Apoptosis Index (1 = no effect) ([2]; Day 3, SorC27 10 μM): 2.9; Apoptosis Index (1 = no effect) ([2]; Day 3, SorC27 100 μM): 4.6; induction of apoptosis compared with Paclitaxel (10 uM) ([2]; SorC27 10 uM): more effective at inducing a faster and more intense apoptotic cascade than Paclitaxel; Apoptosis Index (1 = no effect) ([3]; SorC27 100 μM): 1.0; Decline in cell viability ([3]; SorC27 100 μM): −; apoptosis (treatment:control ratio) compared with CAT cocktail [4]: produced apoptosis sooner and more intensely than the CAT cocktail; Apoptosis Index (1 = no effect) ([4]; Day 3, SorC27 10 uM): 2.2; Apoptosis Index (1 = no effect) ([4]; Day 3, SorC27 100 uM): 2.2; Apoptosis Index (1 = no effect) ([4]; Day 5, SorC27 10 uM): 4.1; Apoptosis Index (1 = no effect) ([4]; Day 5, SorC27 100 uM): 6.3; Decline in cell viability ([4]; SorC27): +; induction of apoptosis [5]: induce apoptosis; induction of apoptosis and cell viability (PC3 and LnCaP clone FGC): induces apoptosis and decreases cell viability; induction of apoptosis and cell viability (K-562): induces apoptosis and decreases cell viability; Physiol. effects in vivo (mealworm larvae); 5 mg/kg (mealworm larvae): Not paralytic

**Q.** Which “Apoptosis Index (1 = no effect)” value ([1]; SorC13 1 uM) does the source give for KEFLHPSKVDLPR [SorC13, KEFLHPSKVDLPR] here?
**A.** Its value is 2.7.

**Q.** What about the “Apoptosis Index (1 = no effect)” value ([1]; SorC13 10 uM) of the same sequence?
**A.** The value was 3.3.

**Q.** What about the “Apoptosis Index (1 = no effect)” value ([1]; SorC13 100 uM) of the same sequence?
**A.** The value was 2.7.

**Q.** What about the “Apoptosis Index (1 = no effect)” value ([2]; SorC13 1 uM) of the same sequence?
**A.** Its value is 1.2.

**Q.** What about the “Apoptosis Index (1 = no effect)” value ([2]; SorC13 10 uM) of the same sequence?
**A.** The value was 1.1.

**Q.** What about the “Apoptosis Index (1 = no effect)” value ([2]; SorC13 100 uM) of the same sequence?
**A.** Its value is 2.4.

**Q.** What about the “Apoptosis Index (1 = no effect)” value ([3]; SorC13 100 uM) of the same sequence?
**A.** Its value is 1.0.

**Q.** What about the “Decline in cell viability” value ([3]; SorC13 100 uM) of the same sequence?
**A.** The value was “−”.

**Q.** What about the “apoptosis (treatment:control ratio) compared with CAT cocktail” value [4] of the same sequence?
**A.** Its value is “produced earlier and more intense apoptosis cascade than the CAT cocktail”.

**Q.** And the “Apoptosis Index (1 = no effect)” value ([4]; Day 4, SorC13 100 uM)?
**A.** The value was 1.4.

**Q.** And the “Apoptosis Index (1 = no effect)” value ([4]; Day 5, SorC13 100 uM)?
**A.** Its value is 1.7.

**Q.** What about the “Decline in cell viability” value ([4]; Day 5, SorC13 100 uM) of the same sequence?
**A.** Its value is “+”.

**Q.** What about the induction of apoptosis [5] of the same sequence?
**A.** Its induction of apoptosis is “induce apoptosis”.

**Q.** What about the “induction of apoptosis and cell viability” value (PC3 and LnCaP clone FGC) of the same sequence?
**A.** Its value is “induces apoptosis and decreases cell viability”.

**Q.** And the “induction of apoptosis and cell viability” value (K-562)?
**A.** Its value is “induces apoptosis and decreases cell viability”.

**Q.** What about the “Physiol. effects in vivo (mealworm larvae); 5 mg/kg” value (mealworm larvae) of the same sequence?
**A.** Its value is “Not paralytic”.
